A short description of this series: Compatibility of maropitant with polyacid polymers (precipitate formation). It is filed as physicochemical. As to conditions: neutral pH.

In the case of `COc1ccc(C(C)(C)C)cc1CN[C@H]1C2CCN(CC2)[C@H]1C(c1ccccc1)c1ccccc1` [Maropitant, (2S,3S)-(Diphenylmethyl)-N-[2-methoxy-5-(2-methyl-2-propanyl)benzyl]quinuclidin-3-amine], the “precipitate formation with polyacid polymer(s) such as CMC, Carbomer and polycarbophil” value is “precipitate was formed”.
